Blank lines part the entries; values can stand above or below the compound they belong to. Activity calls are given as the source filed them.
Legend:
[1] = biological target: FAD-linked sulfhydryl oxidase ALR (Homo sapiens, UniProt P55789); test: ALR-catalysed DTT oxidation blockers – biochemical, H2O2 detection, luminescence, cherry-pick, dose response (AID 493248)
[2] = Luminescence Cell-Based Dose Retest to Confirm Inhibitors of Cancer Stem Cells. [Related pubchem assays (depositor defined):AID2717, AID2721]; assay type: functional; conditions: Homo sapiens
[3] = biological target: Matrix metalloproteinase-14 (Homo sapiens, UniProt P50281); test: Dose Response confirmation of uHTS hits for a small molecule inhibitors of MT1-MMP activation in a fluorescence assay set 2.; assay type: functional
[4] = viability loss of HMLE_sh_eGFP cells – cell-based, luminescence, counter-screen for HMLE_sh_ECad selective toxicity project, dose response (AID 463074); assay type: functional, Homo sapiens;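 note: HMLE human mammary epithelial cells expressing control shRNA against eGFP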
[5] = biological target: Glyceraldehyde-3-phosphate dehydrogenase (Homo sapiens, UniProt P04406)
[6] = biological target: Heat shock 70 kDa protein 1A (Homo sapiens, UniProt P0DMV8); test: inhibition of Hsp70 binding activity – biochemical, fluorescence polarization, SAR follow-up (AID 1072)
[7] = biological target: Heat shock cognate 71 kDa protein (Homo sapiens, UniProt P11142); test: In Vitro Hsc70 Dose Response Fluorescence Polarization Assay. [Related pubchem assays: 1072 ]
[8] = biological target: T1, Dual specificity protein phosphatase 6 (Rattus norvegicus, UniProt Q64346)
T1 sequence (Q64346 whole entry): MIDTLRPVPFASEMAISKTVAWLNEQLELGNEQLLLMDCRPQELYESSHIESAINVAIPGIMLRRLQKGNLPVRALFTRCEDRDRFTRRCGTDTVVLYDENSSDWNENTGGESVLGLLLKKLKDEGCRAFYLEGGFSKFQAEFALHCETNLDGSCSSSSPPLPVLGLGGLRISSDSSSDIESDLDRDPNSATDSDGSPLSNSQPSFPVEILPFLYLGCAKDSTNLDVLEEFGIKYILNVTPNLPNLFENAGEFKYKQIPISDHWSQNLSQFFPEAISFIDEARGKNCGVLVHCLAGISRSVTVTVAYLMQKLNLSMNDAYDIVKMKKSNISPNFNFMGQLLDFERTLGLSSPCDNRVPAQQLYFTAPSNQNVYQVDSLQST

[9] = biological target: T1, Dual specificity protein phosphatase 6; assay type: functional
[10] = biological target: T2, Tyrosine-protein phosphatase non-receptor type 7 (Homo sapiens, UniProt P35236); assay type: functional
T2 sequence (P35236 whole entry): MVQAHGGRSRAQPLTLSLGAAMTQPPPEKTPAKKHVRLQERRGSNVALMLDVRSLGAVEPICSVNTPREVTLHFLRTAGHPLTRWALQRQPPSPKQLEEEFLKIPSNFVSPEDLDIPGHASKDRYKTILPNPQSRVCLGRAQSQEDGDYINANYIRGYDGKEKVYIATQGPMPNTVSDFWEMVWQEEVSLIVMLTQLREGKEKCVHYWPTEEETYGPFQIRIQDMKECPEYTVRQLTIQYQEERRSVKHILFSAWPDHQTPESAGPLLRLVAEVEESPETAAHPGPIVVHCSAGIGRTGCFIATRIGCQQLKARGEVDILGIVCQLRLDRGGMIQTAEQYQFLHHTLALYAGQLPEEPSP

HEK293 [11] = test: cells; assay type: functional, cell-based; conditions: Homo sapiens
[12] = biological target: T3, Nuclear receptor subfamily 0 group B member 1 (Homo sapiens, UniProt P51843); test: Luminescence-based cell-based high throughput dose response assay for inhibitors of the orphan nuclear receptor subfamily 0, group B, member 1 (DAX1; NR0B1). [Related pubchem assays (depositor defined):AID504766, AID504790]; assay type: functional
T3 sequence (P51843 whole entry): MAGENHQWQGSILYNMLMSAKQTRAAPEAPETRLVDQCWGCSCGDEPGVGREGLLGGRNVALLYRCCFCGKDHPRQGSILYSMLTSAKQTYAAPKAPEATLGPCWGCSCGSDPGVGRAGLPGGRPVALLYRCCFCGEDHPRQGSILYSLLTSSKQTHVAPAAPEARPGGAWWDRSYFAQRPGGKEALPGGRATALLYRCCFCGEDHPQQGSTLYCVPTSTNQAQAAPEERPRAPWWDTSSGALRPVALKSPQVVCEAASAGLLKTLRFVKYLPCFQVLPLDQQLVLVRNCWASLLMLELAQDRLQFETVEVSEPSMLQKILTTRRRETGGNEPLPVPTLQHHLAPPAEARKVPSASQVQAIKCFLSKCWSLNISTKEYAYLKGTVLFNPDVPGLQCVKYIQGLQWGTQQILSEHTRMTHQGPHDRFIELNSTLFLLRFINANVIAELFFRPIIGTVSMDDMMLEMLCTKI

[13] = biological target: Beta-2 adrenergic receptor (Homo sapiens, UniProt P07550); test: ADRB2 activation measured by internalization – cell-based, FAP fluorogen, flow cytometry, cherry pick 1, dose response (AID 588763); assay type: functional
A-375 [14] = test: MITF: Counter assay: A375 proliferation Measured in Cell-Based System Using Plate Reader - 2084-03_Inhibitor_Dose_DryPowder_Activity. [Related pubchem assays (depositor defined):AID488944]; assay type: functional; conditions: Homo sapiens
A-375 [15] = test: proliferation inhibition in MITF-low A375 cells – cell-based, cherry-pick samples, set 2, counter-screen for MITF modulator project, dose response (AID 540335); assay type: functional; conditions: Homo sapiens
[16] = viability loss in Vero cells – cytotoxicity control for Vif-APOBEC3G degradation inhibitor project, dose response (AID 1117358); assay type: functional; conditions: Vero
[17] = biological target: Dual specificity protein kinase CLK1 (Homo sapiens, UniProt P49759); test: inhibition of human CLK1 activity – biochemical, cherry-picked samples, selectivity assay for Dyrk1A inhibitor project, dose response (AID 588811)
[18] = biological target: Dual specificity tyrosine-phosphorylation-regulated kinase 1A (Rattus norvegicus, UniProt Q63470); assay type: biochemical, Homo sapiens
Phospholipase D1 = Phospholipase D1 (Homo sapiens, UniProt Q13393); test: PLD1 purified enzyme concentration response. [Related pubchem assays (depositor defined):AID588854]; assay type: functional
Phospholipase D2 [19] = biological target: T4, Phospholipase D2 (Homo sapiens, UniProt O14939); test: PLD2 purified enzyme concentration response. [Related pubchem assays (depositor defined):AID588854]; assay type: functional
Phospholipase D2 [20] = biological target: T4, Phospholipase D2; test: cellular phospholipase D2 inhibition IC50 – cell-based, dose response (AID 602147); assay type: functional;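 note: cellular assay in HEK293 cells overexpressing GFP-tagged PLD2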
HEK293 [21] = test: HEK293T cell viability loss, resazurin readout – resazurin fluorescence, cytotoxicity control for NF-kB activator project, SAR follow-up (AID 493251); assay type: functional, cell-based; conditions: Homo sapiens
HEK293 [22] = test: SAR Analysis of small molecule inhibitors of B-cell specific antigen receptor-induced NF-kB activation in a HEK-293T cell line using a luminescence assay - Set 2. [Related pubchem assays (depositor defined):AID435022, AID435025, AID489021]; assay type: functional, cell-based; conditions: Homo sapiens
Jurkat = test: SAR Analysis of small molecule inhibitors of […] specific antigen receptor-induced NF-kB activation in a Jurkat cell line using a luminescence assay - Set 3. [Related pubchem assays (depositor defined):AID435022, AID435025, AID465]; assay type: functional, cell-based; conditions: Homo sapiens
Hexokinase HKDC1 = biological target: T5, Hexokinase HKDC1 (Homo sapiens, UniProt Q2TB90); test: SAR analysis of small molecule inhibitors of hexokinase domain containing I (HKDC1). [Related pubchem assays (depositor defined):AID493160, AID493190]; assay type: functional
T5 sequence (Q2TB90 whole entry): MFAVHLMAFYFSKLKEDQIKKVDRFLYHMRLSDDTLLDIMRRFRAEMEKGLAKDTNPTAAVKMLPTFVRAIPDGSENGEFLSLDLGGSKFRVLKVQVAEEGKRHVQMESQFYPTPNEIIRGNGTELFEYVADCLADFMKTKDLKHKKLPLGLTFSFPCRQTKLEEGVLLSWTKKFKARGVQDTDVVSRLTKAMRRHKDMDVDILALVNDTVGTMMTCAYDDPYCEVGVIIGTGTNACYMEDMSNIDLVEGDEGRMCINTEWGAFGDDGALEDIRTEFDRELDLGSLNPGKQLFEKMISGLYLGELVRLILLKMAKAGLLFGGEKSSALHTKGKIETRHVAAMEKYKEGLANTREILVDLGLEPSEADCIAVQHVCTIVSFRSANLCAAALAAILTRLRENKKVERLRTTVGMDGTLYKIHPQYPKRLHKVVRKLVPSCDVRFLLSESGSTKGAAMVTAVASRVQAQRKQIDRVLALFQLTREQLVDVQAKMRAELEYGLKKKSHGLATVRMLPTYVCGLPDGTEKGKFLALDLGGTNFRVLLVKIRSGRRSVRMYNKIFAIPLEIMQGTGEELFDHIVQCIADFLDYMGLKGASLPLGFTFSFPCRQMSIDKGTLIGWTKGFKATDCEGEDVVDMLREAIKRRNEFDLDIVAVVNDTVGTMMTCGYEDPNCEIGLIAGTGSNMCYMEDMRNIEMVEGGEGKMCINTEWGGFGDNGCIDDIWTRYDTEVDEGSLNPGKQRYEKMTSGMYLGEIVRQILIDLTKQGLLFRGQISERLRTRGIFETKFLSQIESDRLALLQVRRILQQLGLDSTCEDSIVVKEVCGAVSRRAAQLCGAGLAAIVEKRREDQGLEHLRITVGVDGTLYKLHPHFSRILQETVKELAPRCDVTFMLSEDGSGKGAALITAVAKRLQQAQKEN

Hexokinase-1 = biological target: T6, Hexokinase-1 (Homo sapiens, UniProt P19367); test: SAR analysis of small molecule inhibitors of hexokinase domain containing I (HKDC1) in the hexokinase 1 selectivity assay. [Related pubchem assays (depositor defined):AID493160, AID493190]; assay type: functional
T6 sequence (P19367 whole entry): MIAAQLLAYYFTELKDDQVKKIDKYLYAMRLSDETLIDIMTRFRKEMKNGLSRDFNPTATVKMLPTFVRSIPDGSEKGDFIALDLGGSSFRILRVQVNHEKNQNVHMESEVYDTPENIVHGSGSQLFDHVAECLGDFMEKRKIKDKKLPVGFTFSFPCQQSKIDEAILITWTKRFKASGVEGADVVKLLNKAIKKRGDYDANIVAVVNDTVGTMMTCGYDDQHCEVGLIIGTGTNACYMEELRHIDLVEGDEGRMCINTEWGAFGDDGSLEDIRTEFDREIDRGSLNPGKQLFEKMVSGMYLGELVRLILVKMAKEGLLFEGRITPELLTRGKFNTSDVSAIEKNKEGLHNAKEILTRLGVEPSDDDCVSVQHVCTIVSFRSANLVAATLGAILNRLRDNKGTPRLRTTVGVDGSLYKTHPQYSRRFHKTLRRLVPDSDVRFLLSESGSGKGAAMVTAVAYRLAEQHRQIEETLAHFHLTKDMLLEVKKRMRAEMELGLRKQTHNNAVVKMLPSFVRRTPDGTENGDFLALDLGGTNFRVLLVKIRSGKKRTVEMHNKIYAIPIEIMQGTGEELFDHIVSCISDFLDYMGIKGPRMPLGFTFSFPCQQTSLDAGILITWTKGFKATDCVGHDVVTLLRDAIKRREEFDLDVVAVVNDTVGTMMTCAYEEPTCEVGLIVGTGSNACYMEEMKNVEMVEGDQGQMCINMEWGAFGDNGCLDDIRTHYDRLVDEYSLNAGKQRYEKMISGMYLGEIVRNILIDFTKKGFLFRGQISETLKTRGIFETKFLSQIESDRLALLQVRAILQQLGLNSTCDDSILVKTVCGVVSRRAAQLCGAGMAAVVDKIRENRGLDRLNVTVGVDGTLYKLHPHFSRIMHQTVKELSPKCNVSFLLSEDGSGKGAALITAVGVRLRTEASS

T4 sequence (O14939 whole entry): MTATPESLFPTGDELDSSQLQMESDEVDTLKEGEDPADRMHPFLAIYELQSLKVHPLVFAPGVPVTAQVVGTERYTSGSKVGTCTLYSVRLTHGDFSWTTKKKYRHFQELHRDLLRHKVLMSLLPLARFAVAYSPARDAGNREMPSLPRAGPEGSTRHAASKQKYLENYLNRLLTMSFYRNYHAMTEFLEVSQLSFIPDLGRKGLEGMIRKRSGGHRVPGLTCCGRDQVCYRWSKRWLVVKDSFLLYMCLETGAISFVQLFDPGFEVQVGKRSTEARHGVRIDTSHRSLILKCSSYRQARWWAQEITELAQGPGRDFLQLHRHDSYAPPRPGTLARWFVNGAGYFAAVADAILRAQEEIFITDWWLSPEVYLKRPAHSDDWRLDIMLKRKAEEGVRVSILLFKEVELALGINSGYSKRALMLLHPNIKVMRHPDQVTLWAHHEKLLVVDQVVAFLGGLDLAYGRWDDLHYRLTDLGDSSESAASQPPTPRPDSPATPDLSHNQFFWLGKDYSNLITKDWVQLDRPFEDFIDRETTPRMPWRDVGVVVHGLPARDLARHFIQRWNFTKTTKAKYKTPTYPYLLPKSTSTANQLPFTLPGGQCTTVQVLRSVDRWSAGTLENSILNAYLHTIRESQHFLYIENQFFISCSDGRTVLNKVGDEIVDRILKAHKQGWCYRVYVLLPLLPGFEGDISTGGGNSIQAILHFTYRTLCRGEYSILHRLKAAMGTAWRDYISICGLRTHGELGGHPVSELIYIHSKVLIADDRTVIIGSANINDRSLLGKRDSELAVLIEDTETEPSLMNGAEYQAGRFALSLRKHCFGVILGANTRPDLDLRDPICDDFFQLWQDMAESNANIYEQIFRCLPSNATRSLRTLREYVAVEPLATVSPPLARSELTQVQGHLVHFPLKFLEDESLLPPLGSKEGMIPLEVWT
Beta-2 adrenergic receptor, sequence (P07550 whole entry): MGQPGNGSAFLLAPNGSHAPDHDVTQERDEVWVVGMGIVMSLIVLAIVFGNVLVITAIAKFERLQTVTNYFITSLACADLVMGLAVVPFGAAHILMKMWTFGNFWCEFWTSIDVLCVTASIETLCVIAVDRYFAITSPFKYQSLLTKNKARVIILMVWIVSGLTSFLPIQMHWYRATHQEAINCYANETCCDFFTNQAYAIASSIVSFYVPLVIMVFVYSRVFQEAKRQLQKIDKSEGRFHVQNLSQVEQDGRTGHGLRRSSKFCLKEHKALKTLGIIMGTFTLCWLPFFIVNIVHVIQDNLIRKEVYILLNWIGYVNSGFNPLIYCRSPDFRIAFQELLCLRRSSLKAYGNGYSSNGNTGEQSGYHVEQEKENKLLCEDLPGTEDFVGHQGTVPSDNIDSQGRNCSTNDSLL
Phospholipase D1, sequence (Q13393 whole entry): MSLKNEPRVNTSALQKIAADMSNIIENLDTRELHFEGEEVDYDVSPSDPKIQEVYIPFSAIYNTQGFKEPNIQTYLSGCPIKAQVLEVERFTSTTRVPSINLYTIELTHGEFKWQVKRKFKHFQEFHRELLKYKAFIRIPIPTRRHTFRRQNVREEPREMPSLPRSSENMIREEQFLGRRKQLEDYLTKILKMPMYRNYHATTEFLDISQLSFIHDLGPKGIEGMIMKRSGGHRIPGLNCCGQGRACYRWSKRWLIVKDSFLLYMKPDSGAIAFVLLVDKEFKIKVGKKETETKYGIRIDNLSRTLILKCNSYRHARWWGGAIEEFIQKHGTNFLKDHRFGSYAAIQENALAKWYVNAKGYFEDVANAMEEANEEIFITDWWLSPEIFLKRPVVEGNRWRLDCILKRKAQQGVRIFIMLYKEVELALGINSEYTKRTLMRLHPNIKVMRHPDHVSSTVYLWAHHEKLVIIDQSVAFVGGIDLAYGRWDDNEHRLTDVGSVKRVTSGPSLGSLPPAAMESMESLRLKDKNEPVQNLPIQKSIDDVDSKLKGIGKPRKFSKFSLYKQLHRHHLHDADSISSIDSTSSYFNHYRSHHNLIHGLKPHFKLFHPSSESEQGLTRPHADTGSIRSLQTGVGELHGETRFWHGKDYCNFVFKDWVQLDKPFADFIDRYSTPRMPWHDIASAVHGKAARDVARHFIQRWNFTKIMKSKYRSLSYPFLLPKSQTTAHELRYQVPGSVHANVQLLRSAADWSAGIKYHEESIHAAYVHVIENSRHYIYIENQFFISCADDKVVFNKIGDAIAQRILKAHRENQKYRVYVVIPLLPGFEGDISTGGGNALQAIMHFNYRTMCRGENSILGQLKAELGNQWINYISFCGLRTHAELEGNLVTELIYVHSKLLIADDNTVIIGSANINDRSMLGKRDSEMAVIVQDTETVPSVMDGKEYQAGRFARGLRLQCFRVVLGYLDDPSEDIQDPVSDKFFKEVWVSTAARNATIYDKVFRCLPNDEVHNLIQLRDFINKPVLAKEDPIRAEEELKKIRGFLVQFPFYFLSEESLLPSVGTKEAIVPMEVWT
FAD-linked sulfhydryl oxidase ALR, sequence (P55789 whole entry): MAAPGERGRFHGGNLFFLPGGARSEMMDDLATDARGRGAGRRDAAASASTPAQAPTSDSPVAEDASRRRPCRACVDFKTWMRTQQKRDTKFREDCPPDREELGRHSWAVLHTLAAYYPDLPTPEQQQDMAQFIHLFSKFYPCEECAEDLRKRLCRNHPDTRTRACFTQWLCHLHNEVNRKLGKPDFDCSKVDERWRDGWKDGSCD
Heat shock cognate 71 kDa protein, sequence (P11142 whole entry): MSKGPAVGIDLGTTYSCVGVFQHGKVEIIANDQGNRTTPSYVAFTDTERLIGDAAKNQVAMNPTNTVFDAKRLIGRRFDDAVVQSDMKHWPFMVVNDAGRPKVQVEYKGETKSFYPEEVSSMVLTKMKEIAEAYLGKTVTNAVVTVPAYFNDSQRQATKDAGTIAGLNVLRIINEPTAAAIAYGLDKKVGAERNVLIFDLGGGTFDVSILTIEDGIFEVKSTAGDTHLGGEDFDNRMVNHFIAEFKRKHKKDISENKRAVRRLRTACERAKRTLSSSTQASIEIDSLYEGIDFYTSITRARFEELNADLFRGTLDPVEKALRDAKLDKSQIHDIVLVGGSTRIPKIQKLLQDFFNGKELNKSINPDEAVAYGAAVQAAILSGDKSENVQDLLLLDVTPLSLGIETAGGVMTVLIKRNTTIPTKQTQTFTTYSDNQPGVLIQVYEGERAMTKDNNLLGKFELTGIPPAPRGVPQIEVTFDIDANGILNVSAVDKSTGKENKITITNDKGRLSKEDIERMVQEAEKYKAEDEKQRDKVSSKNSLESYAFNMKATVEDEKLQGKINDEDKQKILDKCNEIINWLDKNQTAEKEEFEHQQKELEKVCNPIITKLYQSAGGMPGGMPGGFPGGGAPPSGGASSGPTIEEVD
Heat shock 70 kDa protein 1A, sequence (P0DMV8 whole entry): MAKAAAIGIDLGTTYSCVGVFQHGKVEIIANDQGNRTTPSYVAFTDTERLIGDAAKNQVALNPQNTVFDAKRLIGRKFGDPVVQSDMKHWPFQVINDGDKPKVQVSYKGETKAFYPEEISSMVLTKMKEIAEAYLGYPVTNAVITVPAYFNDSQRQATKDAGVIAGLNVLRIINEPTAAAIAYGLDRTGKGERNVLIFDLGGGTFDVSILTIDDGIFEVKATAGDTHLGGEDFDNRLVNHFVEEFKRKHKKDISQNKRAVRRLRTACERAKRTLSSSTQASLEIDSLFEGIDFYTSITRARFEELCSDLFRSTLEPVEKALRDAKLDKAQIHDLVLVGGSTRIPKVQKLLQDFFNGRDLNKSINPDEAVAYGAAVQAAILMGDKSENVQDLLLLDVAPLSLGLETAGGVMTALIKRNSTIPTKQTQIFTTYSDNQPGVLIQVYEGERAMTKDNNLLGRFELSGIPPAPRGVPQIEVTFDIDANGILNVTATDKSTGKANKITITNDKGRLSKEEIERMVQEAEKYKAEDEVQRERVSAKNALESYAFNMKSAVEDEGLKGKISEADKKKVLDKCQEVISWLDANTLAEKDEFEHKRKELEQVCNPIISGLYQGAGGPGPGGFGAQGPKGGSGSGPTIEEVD
Glyceraldehyde-3-phosphate dehydrogenase, sequence (P04406 whole entry): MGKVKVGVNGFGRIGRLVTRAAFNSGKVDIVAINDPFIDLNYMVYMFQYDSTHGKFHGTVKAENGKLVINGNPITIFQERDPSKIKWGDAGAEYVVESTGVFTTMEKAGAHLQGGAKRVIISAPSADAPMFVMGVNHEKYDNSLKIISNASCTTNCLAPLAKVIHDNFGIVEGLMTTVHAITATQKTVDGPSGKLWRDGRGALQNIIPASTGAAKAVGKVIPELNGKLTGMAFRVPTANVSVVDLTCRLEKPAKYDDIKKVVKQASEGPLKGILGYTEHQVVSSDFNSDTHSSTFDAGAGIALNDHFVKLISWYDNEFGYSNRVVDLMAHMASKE
Dual specificity protein kinase CLK1, sequence (P49759 whole entry): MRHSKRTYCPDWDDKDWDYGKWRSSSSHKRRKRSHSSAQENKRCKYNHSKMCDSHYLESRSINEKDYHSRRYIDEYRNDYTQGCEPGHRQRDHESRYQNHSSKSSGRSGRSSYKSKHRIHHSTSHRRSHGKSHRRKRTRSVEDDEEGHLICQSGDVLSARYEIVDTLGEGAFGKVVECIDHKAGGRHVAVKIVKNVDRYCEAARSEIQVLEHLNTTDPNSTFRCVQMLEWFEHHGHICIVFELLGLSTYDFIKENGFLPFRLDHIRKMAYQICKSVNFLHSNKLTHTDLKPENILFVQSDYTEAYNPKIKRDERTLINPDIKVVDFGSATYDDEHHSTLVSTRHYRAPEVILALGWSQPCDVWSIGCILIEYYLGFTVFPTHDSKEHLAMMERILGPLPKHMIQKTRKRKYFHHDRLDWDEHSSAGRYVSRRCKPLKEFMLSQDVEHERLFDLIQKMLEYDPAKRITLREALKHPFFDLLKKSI

SMILES: O=C(NNc1c2ccccc2nc2ccccc12)c1ccccc1O
AC50 [1]: 0.08 µM (active)
AC50 [2]: 18.3 µM (active)
IC50 [3]: 60.8 µM (inactive)
AC50 [4]: 22.8 µM (active)

IC50 [5]: > 100 µM (not active)
IC50 [6]: > 100 µM (not active)
IC50 [7]: > 100 µM (not active)
IC50 [8]: > 100 µM (inactive)
IC50 [9]: > 100 µM (inactive)
IC50 [10]: > 100 µM (not active)
SMILES: Cc1cc(I)cc2c1NC(C(=O)O)C1CC=CC21 (stereo unspecified)

SMILES: O=C(CSc1nnc(NC2CCCCC2)s1)Nc1ccc2c(c1)C(=O)c1ccccc1C2=O
IC50 (HEK293 [11]): > 67.5 µM (inactive)
IC50 [12]: > 67.5 µM (inactive)

EC50 [13]: 0.0393 µM (active)
SMILES: O=C(CCCCCn1c(=O)[nH]c2ccsc2c1=O)NCc1ccc2c(c1)OCO2

SMILES: CC(=O)c1ccc(N/C=C/C(=O)c2ccc(Br)cc2)cc1
AC50 (A-375 [14]): > 35 µM (active)
AC50 (A-375 [15]): > 35 µM (active)

AC50 [17]: 2.03 µM (active)
AC50 [18]: 2.01 µM (active)
SMILES: O=C(Nc1nc2ccc(Cl)cc2s1)C1CCCO1 (stereo unspecified)
CC50 [16]: > 40 µM (active)

SMILES: O=C(NCCN1CCC2(CC1)C(=O)NCN2c1ccc(F)cc1)c1cc2cc(F)ccc2[nH]1
IC50 (Phospholipase D1): 5.5 µM (active)
IC50 (Phospholipase D2 [19]): 0.066 µM (active)
IC50 (Phospholipase D2 [20]): 0.027 µM (active)

SMILES: CCOc1ccc(-c2nc(CSCC(=O)NCc3ccccc3)c(C)o2)cc1
IC50 (HEK293 [21]): 49.3 µM (inactive)
IC50 (HEK293 [22]): 21.6 µM (inactive)
IC50 (Jurkat): > 80 µM (inactive)

SMILES: O=c1c2ccccc2nc(/C=C/c2ccccc2)n1-c1ccccc1
IC50 (Hexokinase HKDC1): > 80 µM (inactive)
IC50 (Hexokinase-1): > 80 µM (inactive)

From ChEMBL document CHEMBL1201862, “PubChem BioAssay data set” (2004)
